Laboratory results from PubChem BioAssay (NCI).
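Briefly, cells in 96-well plates were exposed to five compound concentrations for 48 h, and endpoints were estimated by linear interpolation. At the GI50, growth is halved. TGI marks complete inhibition of growth.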

How the values were obtained:
Assay in all cases: NCI tumour cell line growth inhibition, 48 h
HS 578T breast = tested on: HS 578T breast
786-0 renal = tested on: 786-0 renal
UO-31 renal = tested on: UO-31 renal
KM12 colon = tested on: KM12 colon
HCC-2998 colon = tested on: HCC-2998 colon
TK-10 renal = tested on: TK-10 renal
BT-549 breast = tested on: BT-549 breast
HOP-62 NSCLC = tested on: HOP-62 NSCLC
SK-OV-3 ovarian = tested on: SK-OV-3 ovarian
OVCAR-3 ovarian = tested on: OVCAR-3 ovarian
SN12C renal = tested on: SN12C renal
UACC-62 melanoma = tested on: UACC-62 melanoma
EKVX NSCLC = tested on: EKVX NSCLC
MCF7 breast = tested on: MCF7 breast
MDA-MB-231 breast = tested on: MDA-MB-231 breast
MOLT-4 leukemia = tested on: MOLT-4 leukemia
NCI-H522 lung = tested on: NCI-H522 lung
LOX IMVI melanoma = tested on: LOX IMVI melanoma
SR leukemia = tested on: SR leukemia
UACC-257 melanoma = tested on: UACC-257 melanoma
PC-3 prostate = tested on: PC-3 prostate
SNB-75 CNS = tested on: SNB-75 CNS
A498 renal = tested on: A498 renal
NCI-H460 lung = tested on: NCI-H460 lung
HL-60(TB) leukemia = tested on: HL-60(TB) leukemia
SF-295 CNS = tested on: SF-295 CNS
COLO 205 colon = tested on: COLO 205 colon
SK-MEL-2 melanoma = tested on: SK-MEL-2 melanoma
SW-620 colon = tested on: SW-620 colon
HCT-116 colon = tested on: HCT-116 colon
RPMI-8226 leukemia = tested on: RPMI-8226 leukemia
HT29 colon = tested on: HT29 colon
SF-268 CNS = tested on: SF-268 CNS
A549 NSCLC = tested on: A549 NSCLC
NCI-H23 lung = tested on: NCI-H23 lung
M14 melanoma = tested on: M14 melanoma
SNB-19 CNS = tested on: SNB-19 CNS
MDA-MB-435 = tested on: MDA-MB-435
SK-MEL-28 melanoma = tested on: SK-MEL-28 melanoma
CAKI-1 renal = tested on: CAKI-1 renal
DU-145 prostate = tested on: DU-145 prostate
CCRF-CEM leukemia = tested on: CCRF-CEM leukemia
IGROV1 ovarian = tested on: IGROV1 ovarian
NCI-H226 lung = tested on: NCI-H226 lung
OVCAR-8 ovarian = tested on: OVCAR-8 ovarian
U251 CNS = tested on: U251 CNS
OVCAR-4 ovarian = tested on: OVCAR-4 ovarian
NCI/ADR-RES ovarian = tested on: NCI/ADR-RES ovarian
RXF 393 renal = tested on: RXF 393 renal
ACHN renal = tested on: ACHN renal
HOP-92 NSCLC = tested on: HOP-92 NSCLC
T-47D breast = tested on: T-47D breast
OVCAR-5 ovarian = tested on: OVCAR-5 ovarian
SF-539 CNS = tested on: SF-539 CNS
MALME-3M melanoma = tested on: MALME-3M melanoma
SK-MEL-5 melanoma = tested on: SK-MEL-5 melanoma

Structure (SMILES): Cc1ccc2c(n1)C(=O)C(Cl)=C(Nc1cc(C(F)(F)F)cc(C(F)(F)F)c1)C2=O
- GI50 (HS 578T breast): 10.6 µM
- TGI (HS 578T breast): 76.4 µM
- GI50 (786-0 renal): 1.72 µM
- TGI (786-0 renal): 3.36 µM
- GI50 (UO-31 renal): 1.41 µM
- TGI (UO-31 renal): 2.83 µM
- GI50 (KM12 colon): 12.3 µM
- TGI (KM12 colon): 28.9 µM
- GI50 (HCC-2998 colon): 4.61 µM
- TGI (HCC-2998 colon): 18.2 µM
- GI50 (TK-10 renal): 1.88 µM
- TGI (TK-10 renal): 3.31 µM
- GI50 (BT-549 breast): 1.86 µM
- TGI (BT-549 breast): 6.61 µM
- GI50 (HOP-62 NSCLC): 15.9 µM
- TGI (HOP-62 NSCLC): 31.3 µM
- GI50 (SK-OV-3 ovarian): 13.9 µM
- TGI (SK-OV-3 ovarian): 27.1 µM
- GI50 (OVCAR-3 ovarian): 1.61 µM
- TGI (OVCAR-3 ovarian): 3.02 µM
- GI50 (SN12C renal): 4.55 µM
- TGI (SN12C renal): > 100 µM
- GI50 (UACC-62 melanoma): 4.97 µM
- TGI (UACC-62 melanoma): 19.3 µM
- GI50 (EKVX NSCLC): 2.22 µM
- TGI (EKVX NSCLC): 5.45 µM
- GI50 (MCF7 breast): 2.13 µM
- TGI (MCF7 breast): 5.45 µM
- GI50 (MDA-MB-231 breast): 3.54 µM
- TGI (MDA-MB-231 breast): 14 µM
- GI50 (MOLT-4 leukemia): 0.305 µM
- TGI (MOLT-4 leukemia): 1.05 µM
- GI50 (NCI-H522 lung): 1.95 µM
- TGI (NCI-H522 lung): 5.97 µM
- GI50 (LOX IMVI melanoma): 1.6 µM
- TGI (LOX IMVI melanoma): 3.49 µM
- GI50 (SR leukemia): 0.31 µM
- TGI (SR leukemia): 1.98 µM
- GI50 (UACC-257 melanoma): 1.68 µM
- TGI (UACC-257 melanoma): 3.3 µM
- GI50 (PC-3 prostate): 5.29 µM
- TGI (PC-3 prostate): 20 µM
- GI50 (SNB-75 CNS): 9.23 µM
- TGI (SNB-75 CNS): 22.6 µM
- GI50 (A498 renal): 8.72 µM
- TGI (A498 renal): 22 µM
- GI50 (NCI-H460 lung): 13.7 µM
- TGI (NCI-H460 lung): 36.8 µM
- GI50 (HL-60(TB) leukemia): 0.547 µM
- TGI (HL-60(TB) leukemia): 2.58 µM
- GI50 (SF-295 CNS): 12.6 µM
- TGI (SF-295 CNS): 25.8 µM
- GI50 (COLO 205 colon): 1.93 µM
- TGI (COLO 205 colon): 4.31 µM
- GI50 (SK-MEL-2 melanoma): 3.96 µM
- TGI (SK-MEL-2 melanoma): 15.6 µM
- GI50 (SW-620 colon): 2.29 µM
- TGI (SW-620 colon): 5.32 µM
- GI50 (HCT-116 colon): 1.43 µM
- TGI (HCT-116 colon): 2.94 µM
- GI50 (RPMI-8226 leukemia): 1.58 µM
- TGI (RPMI-8226 leukemia): 5.14 µM
- GI50 (HT29 colon): 2.39 µM
- TGI (HT29 colon): 6.18 µM
- GI50 (SF-268 CNS): 6.38 µM
- TGI (SF-268 CNS): 23.5 µM
- GI50 (A549 NSCLC): 16.9 µM
- TGI (A549 NSCLC): 38 µM
- GI50 (NCI-H23 lung): 1.92 µM
- TGI (NCI-H23 lung): 4.94 µM
- GI50 (M14 melanoma): 4.24 µM
- TGI (M14 melanoma): 17.9 µM
- GI50 (SNB-19 CNS): 13.8 µM
- TGI (SNB-19 CNS): 40.1 µM
- GI50 (MDA-MB-435): 4.67 µM
- TGI (MDA-MB-435): 16.4 µM
- GI50 (SK-MEL-28 melanoma): 2.21 µM
- TGI (SK-MEL-28 melanoma): 4.29 µM
- GI50 (CAKI-1 renal): 1.5 µM
- TGI (CAKI-1 renal): 2.94 µM
- GI50 (DU-145 prostate): 2.6 µM
- TGI (DU-145 prostate): 6.47 µM
- GI50 (CCRF-CEM leukemia): 0.651 µM
- TGI (CCRF-CEM leukemia): 3.59 µM
- GI50 (IGROV1 ovarian): 3.6 µM
- TGI (IGROV1 ovarian): 14.1 µM
- GI50 (NCI-H226 lung): 5.36 µM
- TGI (NCI-H226 lung): 41.5 µM
- GI50 (OVCAR-8 ovarian): 4.16 µM
- TGI (OVCAR-8 ovarian): 24.2 µM
- GI50 (U251 CNS): 10.3 µM
- TGI (U251 CNS): 23.5 µM
- GI50 (OVCAR-4 ovarian): 1.44 µM
- TGI (OVCAR-4 ovarian): 2.79 µM
- GI50 (NCI/ADR-RES ovarian): 2.74 µM
- TGI (NCI/ADR-RES ovarian): 8.6 µM
- GI50 (RXF 393 renal): 1.46 µM
- TGI (RXF 393 renal): 2.82 µM
- GI50 (ACHN renal): 1.92 µM
- TGI (ACHN renal): 3.42 µM
- GI50 (HOP-92 NSCLC): 1.57 µM
- TGI (HOP-92 NSCLC): 3.51 µM
- GI50 (T-47D breast): 1.63 µM
- TGI (T-47D breast): 5.18 µM
- GI50 (OVCAR-5 ovarian): 19.4 µM
- TGI (OVCAR-5 ovarian): 38.4 µM
- GI50 (SF-539 CNS): 5.4 µM
- TGI (SF-539 CNS): 18.3 µM
- GI50 (MALME-3M melanoma): 1.67 µM
- TGI (MALME-3M melanoma): 3.58 µM
- GI50 (SK-MEL-5 melanoma): 3.28 µM
- TGI (SK-MEL-5 melanoma): 11.4 µM
